# Data taken from US12325697B2 (Nimbus Clio, Inc., priority 2021, dated 2025).
# Counter-ions that a name gives are not always drawn. Like-named read-outs stand apart in the source and are kept apart here.
# Experiments:
# [1] = system: Phospho-Zap70 (Y-319) in Jurkat wild-type (clone E6-1) cells; experiment: Jurkat pZAP70 HTRF Assay; assay type: cell-based; settings: Homo sapiens
# [2] = system: Jurkat (clone E6-1) cells, NFAT luciferase reporter; experiment: Jurkat Reporter Assay (NFAT Luciferase); assay type: cell-based; settings: Homo sapiens
# [3] = molecular target: Recombinant human Cbl-b (aa 36-427) (Homo sapiens (Human), UniProt Q13191); experiment: Cbl-b Biochemical Assay (TR-FRET); settings: read-out: TR-FRET hCbl-b IC50
# How it was run: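 IC50 from 4-parameter fit of % inhibition (DMSO max, reference-inhibitor min), duplicate ten-point series. Compound preincubated with 6 nM Cbl-b, then Src-Zap70 (1-2.5 nM)/0.5 mM ATP reaction 60 min RT; EDTA quench with labelled UBE2D2-Ub and streptavidin-terbium, 60 min, HTRF at 520 nm.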
# [4] = anti-CD3 5 μg/ml, 3 hr, read-out: ZAP70 Jurkat EC50
# [5] = anti-CD3 stimulation, 6 hr, read-out: Jurkat NFAT EC50
# Sequence of Recombinant human Cbl-b (aa 36-427) (Q13191 36-427): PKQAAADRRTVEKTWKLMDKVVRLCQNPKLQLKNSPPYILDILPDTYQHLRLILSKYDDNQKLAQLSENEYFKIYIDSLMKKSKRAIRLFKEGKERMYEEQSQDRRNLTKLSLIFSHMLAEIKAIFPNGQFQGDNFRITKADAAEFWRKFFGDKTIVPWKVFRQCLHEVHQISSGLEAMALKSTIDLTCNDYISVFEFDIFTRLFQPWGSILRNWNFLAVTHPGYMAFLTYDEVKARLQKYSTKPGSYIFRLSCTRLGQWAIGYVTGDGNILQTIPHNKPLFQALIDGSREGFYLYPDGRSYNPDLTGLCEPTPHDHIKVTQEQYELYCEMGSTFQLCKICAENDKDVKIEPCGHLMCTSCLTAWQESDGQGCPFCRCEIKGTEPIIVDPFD
Compound,"EC50 ([1]; 3 h, read-out: ZAP70 Jurkat EC50 (μM))","EC50 ([2]; 6 h, read-out: Jurkat NFAT EC50 (μM))","EC50 [1, 4]","EC50 [2, 5]",IC50 [3]
CCNc1cc(-c2ccc(F)cc2-c2nncn2C)cc(N2Cc3c(cc(COCCOC)cc3C(F)(F)F)C2=O)n1,0.2 to 1 µM,< 0.2 µM,,,
"CCNc1cc(-c2c(-c3nncn3C)cnn2C)cc(N2Cc3c(cc(CO[C@@H]4CCC[C@@H]4O)cc3C(F)(F)F)C2=O)n1 (racemic) [ADB-1, (rac)-2-[6-(ethylamino)-4-[2-methyl-4-(4-methyl-1,2,4-triazol-3-yl)pyrazol-3-yl]pyridin-2-yl]-6-({[(1R,2S)-2-hydroxycyclopentyl]oxy}methyl)-4-(trifluoromethyl)-3H-isoindol-1-one]",,,1 to 10 µM,0.2 to 1 µM,≤ 0.2 µM
"C[C@H](NCC1(O)CCC1)c1cc2c(c(C(F)(F)F)c1)CN(c1cc(-c3ccccc3-c3nncn3C)cc(C3CC3)n1)C2=O (single isomer, unassigned) [AFT-2]",,,< 0.2 µM,< 0.2 µM,≤ 0.2 µM
"CCNc1cc(-c2ccc(OC)cc2-c2nncn2C)cc(N2Cc3c(cccc3C(F)(F)F)C2=O)n1 [AFB-8, 2-[6-(Ethylamino)-4-[4-methoxy-2-(4-methyl-1,2,4-triazol-3-yl)phenyl]pyridin-2-yl]-4-(trifluoromethyl)-3H-isoindol-1-one]",,,,0.2 to 1 µM,≤ 0.2 µM
"CCNc1cc(-c2ccc(C(=O)OC)cc2-c2nncn2C)cc(N2Cc3c(cccc3C(F)(F)F)C2=O)n1 [AFC-1, Methyl 4-[2-(ethylamino)-6-[1-oxo-4-(trifluoromethyl)-3H-isoindol-2-yl]pyridin-4-yl]-3-(4-methyl-1,2,4-triazol-3-yl) benzoate]",,,,10 to 50 µM,1 to 10 µM
"CCNc1cc(-c2ccc(CO)cc2-c2nncn2C)cc(N2Cc3c(cccc3C(F)(F)F)C2=O)n1 [AFD-1, 2-[6-(ethylamino)-4-[4-(hydroxymethyl)-2-(4-methyl-1,2,4-triazol-3-yl)phenyl]pyridin-2-yl]-4-(trifluoromethyl)-3H-isoindol-1-one]",,,,10 to 50 µM,≤ 0.2 µM
"CCNc1cc(-c2c(-c3nncn3C)cnn2C)cc(N2Cc3c(cc(COCC4(F)CCC4)cc3C(F)(F)F)C2=O)n1 [AFP-2, 2-[6-(Ethylamino)-4-[2-methyl-4-(4-methyl-1,2,4-triazol-3-yl)pyrazol-3-yl]pyridin-2-yl]-6-{[(1-fluorocyclobutyl)methoxy]methyl}-4-(trifluoromethyl)-3H-isoindol-1-one]",,,,0.2 to 1 µM,≤ 0.2 µM
"Cc1ccc2c(c1)C(=O)N(c1cc(-c3ccc(F)cc3-c3nncn3C)cc(C(C)C)n1)C2 [AFY-1, 2-(4-(4-fluoro-2-(4-methyl-4H-1,2,4-triazol-3-yl)phenyl)-6-isopropylpyridin-2-yl)-6-methylisoindolin-1-one]",,,,10 to 50 µM,1 to 10 µM
"CCNc1cc(-c2nn(CC(C)C)cc2-c2nncn2C)cc(N2Cc3c(cccc3C(F)(F)F)C2=O)n1 [AGX-8, 2-[6-(Ethylamino)-4-[4-(4-methyl-1,2,4-triazol-3-yl)-1-(2-methylpropyl)pyrazol-3-yl]pyridin-2-yl]-4-(trifluoromethyl)-3H-isoindol-1-one]",,,,10 to 50 µM,10 to 50 µM
"CN(Cc1cc2c(c(C(F)(F)F)c1)CN(c1cc(-c3ccc(C#N)cc3-c3nncn3C)cc(C3CC3)n1)C2=O)C(=O)OC(C)(C)C [AGY-3, tert-Butyl N-[(2-{4-[4-cyano-2-(4-methyl-1,2,4-triazol-3-yl)phenyl]-6-cyclopropylpyridin-2-yl}-3-oxo-7-(trifluoromethyl)-1H-isoindol-5-yl)methyl]-N-methylcarbamate]",,,,0.2 to 1 µM,≤ 0.2 µM
"CCCn1cc(-c2nncn2C)c(-c2cc(NCC)nc(N3Cc4c(cccc4C(F)(F)F)C3=O)c2)n1 [AHD-9, 2-[6-(Ethylamino)-4-[4-(4-methyl-1,2,4-triazol-3-yl)-1-propylpyrazol-3-yl]pyridin-2-yl]-4-(trifluoromethyl)-3H-isoindol-1-one]",,,,10 to 50 µM,10 to 50 µM
CCOc1cc(-c2ccc(C#N)cc2-c2nncn2C)cc(N2Cc3c(cc(COCCNC)cc3C(F)(F)F)C2=O)n1 [AHE-4],,,,1 to 10 µM,≤ 0.2 µM
"Cn1cnnc1-c1cc(C#N)ccc1-c1cc(C2CC2)nc(N2Cc3c(cc(COCCO)cc3C(F)(F)F)C2=O)c1 [AHF-4, 4-(2-Cyclopropyl-6-{6-[(2-hydroxyethoxy)methyl]-1-oxo-4-(trifluoromethyl)-3H-isoindol-2-yl}pyridin-4-yl)-3-(4-methyl-1,2,4-triazol-3-yl)benzonitrile]",,,,< 0.2 µM,≤ 0.2 µM
"C[C@H](Cc1nncn1C)c1cc(Cl)nc(N2Cc3c(cccc3C(F)(F)F)C2=O)c1 [AHJ-11, (R)-2-(6-Chloro-4-(1-(4-methyl-4H-1,2,4-triazol-3-yl)propan-2-yl)pyridin-2-yl)-4-(trifluoromethyl)isoindolin-1-one]",,,,10 to 50 µM,1 to 10 µM
"C[C@H](Cc1nncn1C)c1cc(NS(C)(=O)=O)nc(N2Cc3c(cccc3C(F)(F)F)C2=O)c1 [AHK-1, N-[4-[(2R)-1-(4-Methyl-1,2,4-triazol-3-yl)propan-2-yl]-6-[1-oxo-4-(trifluoromethyl)-3H-isoindol-2-yl]pyridin-2-yl]methanesulfonamide]",,,,10 to 50 µM,0.2 to 1 µM
"C[C@@H](Cc1nncn1C)c1cc(NS(C)(=O)=O)nc(N2Cc3c(cccc3C(F)(F)F)C2=O)c1 [AHL-8, N-[4-[(2S)-1-(4-Methyl-1,2,4-triazol-3-yl)propan-2-yl]-6-[1-oxo-4-(trifluoromethyl)-3H-isoindol-2-yl]pyridin-2-yl]methanesulfonamide]",,,,10 to 50 µM,10 to 50 µM
"CCOc1cc(N2Cc3c(cccc3C(F)(F)F)C2=O)cc(C2(Cc3nncn3C)COC2)c1 [AHM-12, 2-(3-Ethoxy-5-[3-[(4-methyl-1,2,4-triazol-3-yl)methyl]oxetan-3-yl]phenyl)-4-(trifluoromethyl)-3H-isoindol-1-one]",,,,1 to 10 µM,0.2 to 1 µM
"CCNc1cc(-c2ccccc2-c2nncn2C)cc(N2Cc3c(cc(CN4CC[C@@H](O)C4)cc3C(F)(F)F)C2=O)n1 [AT-1, (R)-2-(6-(Ethylamino)-4-(2-(4-methyl-4H-1,2,4-triazol-3-yl)phenyl)pyridin-2-yl)-6-((3-hydroxypyrrolidin-1-yl)methyl)-4-(trifluoromethyl)isoindolin-1-one]",,,,0.2 to 1 µM,≤ 0.2 µM
"CCNc1cc(-c2ccccc2-c2nncn2C)cc(N2Cc3c(cc(CN4CCC(F)(F)[C@H](C)C4)cc3C(F)(F)F)C2=O)n1 [AU-2, (R)-6-((4,4-Difluoro-3-methylpiperidin-1-yl)methyl)-2-(6-(ethylamino)-4-(2-(4-methyl-4H-1,2,4-triazol-3-yl)phenyl)pyridin-2-yl)-4-(trifluoromethyl)isoindolin-1-one]",,,,0.2 to 1 µM,≤ 0.2 µM
"Cn1cnnc1-c1ccccc1-c1cccc(N2Cc3c(cc(CO[C@@H]4CCC[C@@H]4O)cc3C(F)(F)F)C2=O)c1 [AV-3, 6-((((1R,2S)-2-Hydroxycyclopentyl)oxy)methyl)-2-(2′-(4-methyl-4H-1,2,4-triazol-3-yl)-[1,1′-biphenyl]-3-yl)-4-(trifluoromethyl)isoindolin-1-one]",,,,1 to 10 µM,0.2 to 1 µM
"O=C1c2cc(CNCC3(O)CCC3)cc(C(F)(F)F)c2CN1c1ccccc1 [AX-3, 6-((((1-Hydroxycyclobutyl)methyl)amino)methyl)-2-phenyl-4-(trifluoromethyl)isoindolin-1-one]",,,,10 to 50 µM,10 to 50 µM
"Cn1cnnc1-c1ccccc1-c1cccc(N2Cc3c(cc(Br)cc3C(F)(F)F)C2=O)c1 [AY-1, 6-Bromo-2-(2′-(4-methyl-4H-1,2,4-triazol-3-yl)-[1,1′-biphenyl]-3-yl)-4-(trifluoromethyl)isoindolin-1-one]",,,,10 to 50 µM,0.2 to 1 µM
"CCNc1cc(-c2ccccc2-c2nncn2C)cc(N2Cc3c(cc(COC4CCNCC4)cc3C(F)(F)F)C2=O)n1 [BA-4, 2-(6-(Ethylamino)-4-(2-(4-methyl-4H-1,2,4-triazol-3-yl)phenyl)pyridin-2-yl)-6-((piperidin-4-yloxy)methyl)-4-(trifluoromethyl)isoindolin-1-one, HCl]",,,,1 to 10 µM,≤ 0.2 µM
"Cn1cnnc1-c1ccccc1-c1cccc(N2Cc3c(cc(COC4CCN(C(=O)OC(C)(C)C)CC4)cc3C(F)(F)F)C2=O)c1 [BB-1, tert-Butyl 4-((2-(2′-(4-methyl-4H-1,2,4-triazol-3-yl)-[1,1′-biphenyl]-3-yl)-3-oxo-7-(trifluoromethyl)isoindolin-5-yl)methoxy)piperidine-1-carboxylate]",,,,10 to 50 µM,0.2 to 1 µM
"CN1CCC(OCc2cc3c(c(C(F)(F)F)c2)CN(c2cccc(-c4ccccc4-c4nncn4C)c2)C3=O)CC1 [BC-4, 2-(2′-(4-Methyl-4H-1,2,4-triazol-3-yl)-[1,1′-biphenyl]-3-yl)-6-(((1-methylpiperidin-4-yl)oxy)methyl)-4-(trifluoromethyl)isoindolin-1-one]",,,,1 to 10 µM,0.2 to 1 µM
"Cn1cnnc1-c1ccccc1-c1cccc(N2Cc3c(cc(COC4CCOCC4)cc3C(F)(F)F)C2=O)c1 [BD-3, 2-(2′-(4-Methyl-4H-1,2,4-triazol-3-yl)-[1,1′-biphenyl]-3-yl)-6-(((tetrahydro-2H-pyran-4-yl)oxy)methyl)-4-(trifluoromethyl)isoindolin-1-one]",,,,1 to 10 µM,≤ 0.2 µM
"Cn1cnnc1-c1cc(C#N)ccc1-c1cccc(N2Cc3c(cc(CN[C@@H]4CCC[C@@H]4O)cc3C(F)(F)F)C2=O)c1 [BE-3, 3′-(6-((((1R,2S)-2-Hydroxycyclopentyl)amino)methyl)-1-oxo-4-(trifluoromethyl)isoindolin-2-yl)-2-(4-methyl-4H-1,2,4-triazol-3-yl)-[1,1′-biphenyl]-4-carbonitrile]",,,,< 0.2 µM,≤ 0.2 µM
